Results reported in patent publication US5453417A, “Process for the phosphorylation of insulin and product produced thereby” (The Hospital for Sick Children, priority 1991, dated 1995).

Key:
Type in all cases: in vivo, dog
diabetic dogs = assay: continuous 24 hour infusion, increase of infusion rate needed to lower 8 a.m. fasting plasma glucose; conditions: two diabetic dogs, phosphorylated insulin = product prepared as Example 6 (FIG. 12)
Experimental: Two diabetic dogs were fed a single daily meal of 1100 kcal at 2:00 p.m. daily and given regular (i.e. fast acting) insulin at meal time.
In addition, dogs were infused continuously, 24 hours per day with either regular or phosphorylated insulin (product prepared as example 6).
During repeated experiments the minimum insulin infusion rate required to produce a mean 8 a.m. fasting plasma glucose of 95 mg % was determined for each insulin.

[1] = system: normal, fasted, beagle dogs; assay: intravenous bolus, rate of decline of plasma glucose in 15 minutes following the injection; conditions: i.v. bolus, phosphorylated insulin = product of Example 2
Experimental: Phosphorylated insulin produced by the process described in Example 2 and regular insulin (Iletin II pure Pork) were injected as an intravenous bolus into 4 normal, fasted, beagle dogs. Each insulin was injected at a wide range of dosage with not more than one experiment on each dog on any given day. The plasma glucose of each dog was measured (YSI) at 2 minute intervals for 15 minutes following the injection and the rate of decline of glucose from normal was determined in this period for each individual insulin dose. When the data from FIG. 8 are analysed, it can be shown that the % change in insulin dose required to produce a given increase in glucose drop (glucose disposal) is greater for phosphorylated than for regular (unmodified) insulin. Thus, for example, in Table 4, a 28% increase in dose of regular insulin from that which produced a glucose drop of 3.5 mg %/min., caused the "rate of drop of glucose" to increase from 3.5 to 4.0 mg %/min. A 66 % increase in dose of phosphorylated insulin was required to produce the same effect.

[2] = system: diabetic (pancreatectomized) dogs; assay: continuous insulin infusion at Max Rate and reduced rates, plasma glucose plateau under fasting conditions
Experimental: The initial step in the protocol involved determining the required insulin infusion rate of either regular or phosphorylated insulin that would, under fasting conditions, reduce plasma glucose from normal at 7:30 a.m. to a plateau of 60 mg %, 2-4 hours later. […] The rate that produced this reduction of blood glucose to 60 mg % was termed "Max Rate".
On subsequent days, identical experiments were conducted on all 4 diabetic dogs with the exception that the animals received a reduced rate of insulin infusion equal to either 1) 62% of the "Max Rate" as shown in FIG. 6 or 2) 36% of the "Max Rate" as shown in FIG. 7.
In this test, the dogs infused with regular insulin reached a glucose threshold of 180 mg % (renal threshold at which the kidneys begin to spill glucose into the urine). The phosphorlated infused dogs reached a lower average glucose level of 120-130 mg %.
All protocols described were conducted in triplicate on all dogs.

For “regular insulin: regular (unmodified) insulin, fast acting; Iletin II pure Pork in Example 32 [reference compound]”, the “increase of insulin infusion rate required to drop the fasting glucose from 95 to 70 mg %” value (diabetic dogs) was 20%, the “Required % Increase In Insulin Dose” value ([1]; change in rate of drop of glucose from 1.0 to 1.5 mg %/min) was 49% and the “Required % Increase In Insulin Dose” value ([1]; change in rate of drop of glucose from 1.5 to 2.0 mg %/min) was 33%. For the same substance, the “Required % Increase In Insulin Dose” value ([1]; change in rate of drop of glucose from 2.0 to 2.5 mg %/min) was 25%, the “Required % Increase In Insulin Dose” value ([1]; change in rate of drop of glucose from 2.5 to 3.0 mg %/min) was 20% and the “Required % Increase In Insulin Dose” value ([1]; change in rate of drop of glucose from 3.0 to 3.5 mg %/min) was 39%. The “Required % Increase In Insulin Dose” value ([1]; change in rate of drop of glucose from 3.5 to 4.0 mg %/min) was 28%, the “Required % Increase In Insulin Dose” value ([1]; change in rate of drop of glucose from 4.0 to 4.5 mg %/min) was 34% and the plasma glucose plateau ([2]; infusion at Max Rate, fasting, last 2 hours, phosphorylated insulin = product of Example 3, 4 diabetic dogs (FIG. 5)) was 60 mg %. The “average glucose level reached” value ([2]; infusion rate reduced to 36% of Max Rate, phosphorylated insulin = product of Example 3 (FIG. 7)) was 180 mg % and the “average plasma glucose plateau” value ([2]; infusion rate reduced to 62% of Max Rate, phosphorylated insulin = product of Example 3 (FIG. 6)) was 150 mg %.
